Source: PMC5902452, “In silico optimization of a guava antimicrobial peptide enables combinatorial exploration for peptide design” (Nature Communications, 2018)
Peptide text beside a SMILES is read from it.

Legend:
[1] = test system: C. albicans clinical isolate; assay: Antibiofilm assay (planktonic growth and biofilm formation, crystal violet); assay type: cell-based, Candida albicans
Description: Overnight cultures of microorganisms [E. coli 0157, methicillin-resistant S. aureus (MRSA), K. pneumoniae 1825971, or C. albicans clinical isolate obtained from a blood culture maintained at LACEN (Laboratório Central de Saúde do Distrito Federal, a Brazilian reference laboratory for clinical isolates in Brasília, Brazil)] grown in LB broth (BD Difco) were diluted 1 in 100 in LB and Todd-Hewitt broth (BD Difco) or BM2 minimal medium [62 mM potassium phosphate buffer, pH 7.0, 7 mM (NH4)2SO4, 2 mM MgSO4, 10 μM FeSO4, 0.5% glucose], and 100 μL per well was added into 96-well round-bottom microplates. Absorbance at 600 nm was used to assess the planktonic cell growth. Non-adherent planktonic cells were removed from microtiter wells and washed twice with deionized water. Adherent cells were stained with 0.1% crystal violet for 20 min. The microplate wells were washed twice with deionized water, air dried, and solubilized with 110 μL of 70% ethanol. […] Biofilm formation was assessed by measuring the absorbance at 600 nm using a microplate reader (Bio-Tek Instruments, Inc., USA). The microdilution method for cationic peptides was used to determine the MIC for planktonic cells. Three biological replicates were performed for each experiment involving eight technical replicates.

P. aeruginosa ATCC 27853 = assay: SEM-FEG imaging; assay type: cell-based, Pseudomonas aeruginosa; conditions: 25 µM (MIC) and 50 µM, 1 h, 37 °C
Description: Bacteria in mid-logarithmic phase were collected by centrifugation ([…], 10 min, 4 °C), washed twice with PBS, and suspended in the same buffer at a density of 2 × 10^7 cfu mL^−1. […] As a negative control, cells were incubated in buffer without peptide. Microbial cells were then fixed with 2.5% glutaraldehyde, homogenized by gently inverting the tubes, and stored at 4 °C prior to SEM-FEG analysis. A Hitachi SU-70 Field Emission Gun Scanning Electron Microscope was used to record SEM-FEG images. The samples (gold plates where 20 µL of inoculum were deposited and dried under nitrogen) were fixed on an alumina SEM support with a carbon adhesive tape and were observed without metallization. In Lens Secondary electron detector (SE-Lower) was used to characterize our samples. The accelerating voltage was 1 kV and the working distance was around 15 mm. At least five to ten different locations were analyzed on each surface, leading to the observation of a minimum of 100 single cells.

Structure (SMILES): CC[C@H](C)[C@H](NC(=O)[C@H](CCCNC(=N)N)NC(=O)[C@H](Cc1ccc(O)cc1)NC(=O)CNC(=O)[C@H](Cc1ccc(O)cc1)NC(=O)[C@H](CCCNC(=N)N)NC(=O)[C@H](CC(C)C)NC(=O)[C@H](C)NC(=O)[C@H](CCC(N)=O)NC(=O)[C@H](CCC(=O)O)NC(=O)[C@@H](NC(=O)[C@H](CCC(N)=O)NC(=O)[C@H](CCCNC(=N)N)NC(=O)[C@H](CCSC)NC(=O)[C@H](Cc1ccc(O)cc1)NC(=O)[C@H](CCC(N)=O)NC(=O)[C@@H](N)CCCNC(=N)N)[C@@H](C)CC)C(=O)N[C@@H](CO)C(=O)N[C@@H](CCCNC(=N)N)C(=O)N[C@@H](CCCNC(=N)N)C(N)=O [Guavanin 2] (H-RQYMRQIEQALRYGYRISRR-NH2)
- antibiofilm activity [1]: able to reduce C. albicans biofilms
- concentration from which biofilm formation is inhibited (p<0.05) ([1]; crystal violet, Student's t-test, three replicates): 32 µg/mL
- concentration from which planktonic cells are affected (p<0.05) ([1]; planktonic cells not eliminated, Student's t-test, three replicates): 16 µg/mL
- membrane effect seen in SEM-FEG images (P. aeruginosa ATCC 27853): membrane damage (deformations/indentations)
